Assays:
[1] = molecular target: T1, thromboxane synthase (Guinea Pig Lung Microsomes) (Cavia porcellus, UniProt H0UT36); assay: biochemical; conditions: enzyme source G = Guinea Pig Lung Microsomes; read-out: IC50
T1 construct: The lungs were removed, freed of trachea and the majority of blood removed by rinsing the lungs with buffer; from tissue; host or cells: lungs of male guinea pigs (microsomes, 110,000 g pellet)
Description: In said assay procedure, microsomes from guinea pig lung or human platelets are added to an endoperoxide intermediate in prostaglandin biosynthesis and the inhibitor in phosphate buffer solution followed by incubation, extraction and determination of the extent of thromboxane synthase inhibition by TLC with radiochromatographic profile analysis. […]
Isolation of Guinea Pig Lung Microsomes
Four male guinea pigs (.congruent.500 g each) were sacrificed by spinal dislocation. The lungs were removed, freed of trachea and the majority of blood removed by rinsing the lungs with buffer (0.1M phosphate pH 7.5) via the pulmonary artery. The lung tissue (18.3 g total wet wt.), was then minced, suspended in three volumes of buffer and homogenized using, initially, a Brinkmann polytron homogenizer and, finally, a glass-teflon tissue grinder. The homogenate was centrifuged at 12,000 g for 1 hr. and the resultant supernatant recentrifuged at 110,000 g for 1 hr. The 110,000 g pellet was taken up in 10 ml of buffer, divided into 5×2 ml aliquots and stored at -70° until use.
(§1) Low specific activity PGH2 (3.3 μCi/μmole) was obtained from Dr. W. E. M. Lands of the University of Michigan. PGH2 of higher specific activity (16.0 μCi/μmole) was purchased from Ran Biochemicals, Tel-Aviv, Israel.
(§2) The inhibitors tested were prepared as solutions (1-10 mg/ml) in 95% ethanol.
(§3) Assay for Thromboxane Synthase
(§4) To a 12×75 mm tube containing [1-^14 C] PGH2 (2 μg, 0.01 μCi or 0.05 μCi) and inhibitor (1 mM final assay concentration, in 10 μl of ethanol) in 225 μl of phosphate buffer (0.1M, pH 7.5), was added to an aliquot of guinea pig lung microsomes (25 μl, containing 400 μg protein) or an aliquot of human platelet microsomes (25 μl, containing .congruent.[…] protein). The solution was incubated in a 22° water bath for 2 min.; ether (1 ml) and citric acid (25 μMoles) were added, and the tube plunged into an acetone-dry ice bath. The ether extract was transferred to a 1.0 ml Reacti-vial, and the volume reduced under nitrogen to .congruent.50 μl.
(§5) The extract was applied to an I.T.L.C., type SG, glass fiber sheet (Gelman Instrument Co., Ann Arbor, Mich.) and developed in isooctane; methyl ethyl ketone: acetic acid (100:19:1 or 100:9:1) (19). The sheets were air dried and scanned using a Berthold LB 2760 Radiochromatographic Scanner. In certain cases, based on the radiochromatographic profile obtained, the sheets were cut, the appropriate regions placed in scintillation vials, 10 ml of LSC cocktail (Yorktown Research, S. Hackensack, NJ) added, and the relative cpm determined.

[2] = molecular target: T2, thromboxane synthase (Human Platelet Microsomes) (Homo sapiens, UniProt P24557); assay: Thromboxane synthase inhibition, human platelet microsomes; format: biochemical; conditions: enzyme source H = Human Platelet Microsomes; read-out: IC50
T2 construct: Platelets were obtained from 320 ml of whole blood and resuspended in 5.0 ml of Krebs-Hensleit buffer; from tissue; host or cells: human platelets (microsomes, 110,000 g pellet)
T2 sequence (P24557 1-533): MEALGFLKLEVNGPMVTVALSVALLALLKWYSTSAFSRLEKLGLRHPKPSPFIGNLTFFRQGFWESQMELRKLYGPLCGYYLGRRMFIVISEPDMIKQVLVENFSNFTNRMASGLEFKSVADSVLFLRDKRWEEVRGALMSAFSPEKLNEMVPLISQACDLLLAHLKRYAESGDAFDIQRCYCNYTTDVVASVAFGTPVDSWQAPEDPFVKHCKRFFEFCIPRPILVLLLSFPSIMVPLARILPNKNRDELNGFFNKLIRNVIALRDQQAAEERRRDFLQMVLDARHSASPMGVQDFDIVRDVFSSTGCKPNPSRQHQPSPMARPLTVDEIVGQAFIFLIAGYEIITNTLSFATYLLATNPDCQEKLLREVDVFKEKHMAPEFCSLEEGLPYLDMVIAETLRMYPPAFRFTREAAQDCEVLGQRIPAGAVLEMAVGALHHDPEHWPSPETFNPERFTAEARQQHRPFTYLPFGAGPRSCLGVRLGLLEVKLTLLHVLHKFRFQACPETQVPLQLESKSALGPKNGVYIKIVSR
Description: In said assay procedure, microsomes from guinea pig lung or human platelets are added to an endoperoxide intermediate in prostaglandin biosynthesis and the inhibitor in phosphate buffer solution followed by incubation, extraction and determination of the extent of thromboxane synthase inhibition by TLC with radiochromatographic profile analysis.
Determination of Inhibition of Thromboxane Synthase Activity Isolation of Human Platelet Microsomes
Platelets were obtained from 320 ml of whole blood and resuspended in 5.0 ml of Krebs-Hensleit buffer (CA^+2 free). After three consecutive freeze-thawing cycles, homogenization and centrifugation at 12,000 g for 45 min., the 12,000 supernatant was recentrifuged at 110,000 g for 60 min. The resultant pellet was resuspended in phosphate buffer (0.5 ml, 0.1M, pH 7.5) and stored at -70° until use.
as §1, §2, §3, §4, §5

male Zucker rats = assay: Carcass weight and carcass lipid and protein levels in male Zucker rats; format: in vivo, rat; conditions: 29 days; for Carcass Protein % of carcass weight / Carcass Protein total / Carcass Lipids % of carcass weight / Carcass Lipids total / Carcass Weight: mean ± S.E.
Description: In one study, carcass composition was determined. After treatment, rats were sacrificed by decapitation, and livers and blood were removed. Carcasses were weighed, saponified in alcoholic potassium hydroxide, acidified and extracted with petroleum ether. The petroleum ether supernatants were transferred to preweighed glass vials, evaporated immediately to dryness under nitrogen and reweighed. Total carcass data are expressed in grams and percentages of carcass weight. An aliquot of saponified carcass extract was neutralized, and total carcass nitrogen was determined using Kjeldahl procedure. Carcass protein data are expressed in grams and percentages of carcass weight.
^a Four month old male Zucker rats (four per group) were fed G70:1%
corn oil diet ad libitum for 24 days prior to treatment.
1[4(1H--imidazol1-yl)phenyl]ethanone was then mixed into the G70:1% corn
oil diet and rats were fed ad libitum for 29 days. On day 29 rats were
killed by decapitation and the carcasses (minus liver and blood) were
analyzed for total lipid and protein. Each value is the mean ± S.E.
^b Amount of 1[4(1H--imidazol1-yl)phenyl]ethanone ingested per day pe
^c Values in parentheses indicate percent of control.

[3] = Lean, 98 mg per day per kg in diet
[4] = Lean, 98 mg per day per kg in diet, P ≤ 0.05
[5] = Obese, 87 mg per day per kg in diet

T1 sequence (H0UT36 entry or part of it): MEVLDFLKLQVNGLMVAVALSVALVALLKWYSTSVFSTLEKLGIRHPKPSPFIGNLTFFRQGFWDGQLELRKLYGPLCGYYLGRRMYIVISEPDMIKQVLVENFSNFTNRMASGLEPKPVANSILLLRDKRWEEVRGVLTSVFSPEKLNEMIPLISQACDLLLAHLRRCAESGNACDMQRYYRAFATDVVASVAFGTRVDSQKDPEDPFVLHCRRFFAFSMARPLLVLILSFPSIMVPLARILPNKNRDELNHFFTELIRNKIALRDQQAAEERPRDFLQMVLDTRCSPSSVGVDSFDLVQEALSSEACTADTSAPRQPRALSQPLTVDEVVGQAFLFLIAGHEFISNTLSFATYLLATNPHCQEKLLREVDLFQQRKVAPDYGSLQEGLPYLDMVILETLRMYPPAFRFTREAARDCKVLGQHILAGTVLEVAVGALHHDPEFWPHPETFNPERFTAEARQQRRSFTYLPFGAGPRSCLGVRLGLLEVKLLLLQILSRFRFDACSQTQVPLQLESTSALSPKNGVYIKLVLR

CC(=O)c1ccc(-n2ccnc2)cc1 [1-[4-(1H--imidazol-1-yl)phenyl]ethanone, 1-[4-(1H-imidazol-1-yl)phenyl]ethanone]
IC50 [1]: 1 to 10 µM | IC50 [2]: 1 to 10 µM | Carcass Lipids % of carcass weight, percent of control (male Zucker rats; [3]): 60% of control | Carcass Lipids total, percent of control (male Zucker rats; [3]): 50% of control | Carcass Protein % of carcass weight, percent of control (male Zucker rats; [3]): 111% of control | Carcass Protein total, percent of control (male Zucker rats; [3]): 87% of control | Carcass Weight, percent of control (male Zucker rats; [3]): 84% of control | Carcass Protein % of carcass weight (male Zucker rats; [3]): 21 ± 2 % of carcass weight | Carcass Protein total (male Zucker rats; [3]): 75 ± 5 g | Carcass Lipids % of carcass weight (male Zucker rats; [4]): 8 ± 1 % of carcass weight | Carcass Lipids total (male Zucker rats; [4]): 29 ± 5 g | Carcass Weight (male Zucker rats; [4]): 361 ± 27 g | Carcass Lipids % of carcass weight, percent of control (male Zucker rats; [5]): 104% of control | Carcass Lipids total, percent of control (male Zucker rats; [5]): 86% of control | Carcass Protein % of carcass weight, percent of control (male Zucker rats; [5]): 131% of control | Carcass Protein total, percent of control (male Zucker rats; [5]): 109% of control | Carcass Weight, percent of control (male Zucker rats; [5]): 83% of control | Carcass Lipids % of carcass weight (male Zucker rats; [5]): 49 ± 1 % of carcass weight | Carcass Lipids total (male Zucker rats; [5]): 225 ± 6 g | Carcass Protein % of carcass weight (male Zucker rats; [5]): 18 ± 2 % of carcass weight | Carcass Protein total (male Zucker rats; [5]): 81 ± 4 g | Carcass Weight (male Zucker rats; Obese, 87 mg per day per kg in diet, P ≤ 0.05): 460 ± 28 g

Source: patent US4731363A, “Thromboxane synthase inhibitors as insulin lowering agents and antiobesity agents” (priority 1986, dated 1988)
